Laboratory results from ChEMBL document CHEMBL4834492, “Targeting the KRAS G12D Mutant as Potential Therapy in Cancer” (ACS Med Chem Lett, 2021).

These compounds were tested on A-427 (assay: Antiproliferative activity against human A427 cells expressing KRAS G12D mutant assessed as inhibition of cell growth measured after 3 days by CellTiter-Glo assay). Details: A-427, 72 h.
Type: functional, cell-based

SMILES | IC50
CN(C)CC1(COc2nc3c(c(N4CC5CCC(C4)N5)n2)CCN(c2cc(O)cc4cccc(I)c24)C3)CC1 | 580 nM
CN1C[C@H](F)C[C@H]1COc1nc2c(c(N3CC4CCC(C3)N4)n1)CCN(c1cc(O)cc3cccc(Br)c13)C2 | 650 nM
Cc1cccc2cc(O)cc(N3CCc4c(nc(OCC5(CN6CCOCC6)CC5)nc4N4CC5CCC(C4)N5)C3)c12 | 550 nM
Oc1cc(N2CCc3c(nc(OCC4(CN5CCOCC5)CC4)nc3N3CC4CCC(C3)N4)C2)c2c(I)cccc2c1 | 350 nM
Oc1cc(N2CCc3c(nc(OCC4(CN5CCOCC5)CC4)nc3N3CC4CCC(C3)N4)C2)c2c(Br)cccc2c1 | 590 nM
Oc1cc(N2CCc3c(nc(OCC4(CN5CC[C@@H](F)C5)CC4)nc3N3CC4CCC(C3)N4)C2)c2c(Br)cccc2c1 | 540 nM
Oc1cc(N2CCc3c(nc(OCC4(CN5CC[C@@H](F)C5)CC4)nc3N3CC4CCC(C3)N4)C2)c2c(I)cccc2c1 | 470 nM
CN(C)CC1(COc2nc3c(c(N4CC5CCC(C4)N5)n2)CCN(c2cc(O)cc4cccc(Br)c24)C3)CC1(F)F (centres undefined) | 540 nM

The compounds below were run against GTPase KRas (Homo sapiens, UniProt P01116, G12D) (assay: Inhibition of recombinant his-tagged KRAS G12D mutant (unknown origin) expressed in Escherichia coli BL21(DE3) assessed as inhibition of GDP-GTP exchange rate in presence of recombinant SOS1/GMPPNP incubated for 1 hr by BODIPY fluorescence assay). Details: not given.
Chain of GTPase KRas (P01116 whole entry G12D): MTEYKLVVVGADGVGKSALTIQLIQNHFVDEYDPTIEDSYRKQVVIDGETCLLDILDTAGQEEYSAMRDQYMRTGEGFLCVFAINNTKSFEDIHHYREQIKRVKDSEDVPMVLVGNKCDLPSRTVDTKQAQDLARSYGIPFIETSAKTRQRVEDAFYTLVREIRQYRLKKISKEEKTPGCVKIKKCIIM

SMILES | IC50
Oc1cc(N2CCc3c(nc(OCC4(CN5CCOCC5)CC4)nc3N3CC4CCC(C3)N4)C2)c2c(Br)cccc2c1 | 1.2 nM
